Converted amounts (≈) assume the structure as drawn.
Tests used:
C. krusei ATCC 6258 = assay: Anti-Fungal Activity Assay (broth microtiter MIC), C. krusei; assay type: cell-based, Candida krusei; conditions: Pichia kudriavzevii, ATCC6258, 48 h, 3 replicates; MIC recorded at 48 h; read-out: MIC C. krusei ATCC 6258
How it was run: (§1)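 MIC by visual comparison with growth control, read at 48 h (soraphen also at 24 h). Inoculum: colonies from overnight Sabouraud dextrose agar plates at 35° C, suspended in RPMI 1640+MOPS, density from standard curves. Microtiter broth dilution per CLSI M27-A3; compounds from 1 mg/mL DMSO stocks.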

Fungal ACC2 = Fungal ACC2 (UniProt Q00955); conditions: read-out: Fungal ACC2 (IC50, in vitro ACC2 inhibition)
Human ACC2 = Human ACC2 (Homo sapiens, UniProt O00763); assay: In vitro ACC2 inhibition assay (ADP-Glo), human ACC2; assay type: biochemical; conditions: 5 nM ACC2, 20 μM ATP, 20 μM acetyl-CoA
[1] = system: C. parapsilosis ATCC 22019; assay: Anti-Fungal Activity Assay (broth microtiter MIC), C. parapsilosis; assay type: cell-based, Candida parapsilosis; conditions: Lodderomyces parapsilosis, ATCC22019, 48 h, 3 replicates; MIC recorded at 48 h; read-out: MIC C. parapsilosis ATCC 22019
How it was run: as §1

C. albicans ATCC 90028 = assay: Anti-Fungal Activity Assay (broth microtiter MIC), C. albicans; assay type: cell-based, Candida albicans; conditions: Candida albicans, ATCC90028, 48 h, 3 replicates; MIC recorded at 48 h; read-out: MIC C. albicans ATCC 90028
How it was run: as §1

Chain of Fungal ACC2 (Q00955 whole entry): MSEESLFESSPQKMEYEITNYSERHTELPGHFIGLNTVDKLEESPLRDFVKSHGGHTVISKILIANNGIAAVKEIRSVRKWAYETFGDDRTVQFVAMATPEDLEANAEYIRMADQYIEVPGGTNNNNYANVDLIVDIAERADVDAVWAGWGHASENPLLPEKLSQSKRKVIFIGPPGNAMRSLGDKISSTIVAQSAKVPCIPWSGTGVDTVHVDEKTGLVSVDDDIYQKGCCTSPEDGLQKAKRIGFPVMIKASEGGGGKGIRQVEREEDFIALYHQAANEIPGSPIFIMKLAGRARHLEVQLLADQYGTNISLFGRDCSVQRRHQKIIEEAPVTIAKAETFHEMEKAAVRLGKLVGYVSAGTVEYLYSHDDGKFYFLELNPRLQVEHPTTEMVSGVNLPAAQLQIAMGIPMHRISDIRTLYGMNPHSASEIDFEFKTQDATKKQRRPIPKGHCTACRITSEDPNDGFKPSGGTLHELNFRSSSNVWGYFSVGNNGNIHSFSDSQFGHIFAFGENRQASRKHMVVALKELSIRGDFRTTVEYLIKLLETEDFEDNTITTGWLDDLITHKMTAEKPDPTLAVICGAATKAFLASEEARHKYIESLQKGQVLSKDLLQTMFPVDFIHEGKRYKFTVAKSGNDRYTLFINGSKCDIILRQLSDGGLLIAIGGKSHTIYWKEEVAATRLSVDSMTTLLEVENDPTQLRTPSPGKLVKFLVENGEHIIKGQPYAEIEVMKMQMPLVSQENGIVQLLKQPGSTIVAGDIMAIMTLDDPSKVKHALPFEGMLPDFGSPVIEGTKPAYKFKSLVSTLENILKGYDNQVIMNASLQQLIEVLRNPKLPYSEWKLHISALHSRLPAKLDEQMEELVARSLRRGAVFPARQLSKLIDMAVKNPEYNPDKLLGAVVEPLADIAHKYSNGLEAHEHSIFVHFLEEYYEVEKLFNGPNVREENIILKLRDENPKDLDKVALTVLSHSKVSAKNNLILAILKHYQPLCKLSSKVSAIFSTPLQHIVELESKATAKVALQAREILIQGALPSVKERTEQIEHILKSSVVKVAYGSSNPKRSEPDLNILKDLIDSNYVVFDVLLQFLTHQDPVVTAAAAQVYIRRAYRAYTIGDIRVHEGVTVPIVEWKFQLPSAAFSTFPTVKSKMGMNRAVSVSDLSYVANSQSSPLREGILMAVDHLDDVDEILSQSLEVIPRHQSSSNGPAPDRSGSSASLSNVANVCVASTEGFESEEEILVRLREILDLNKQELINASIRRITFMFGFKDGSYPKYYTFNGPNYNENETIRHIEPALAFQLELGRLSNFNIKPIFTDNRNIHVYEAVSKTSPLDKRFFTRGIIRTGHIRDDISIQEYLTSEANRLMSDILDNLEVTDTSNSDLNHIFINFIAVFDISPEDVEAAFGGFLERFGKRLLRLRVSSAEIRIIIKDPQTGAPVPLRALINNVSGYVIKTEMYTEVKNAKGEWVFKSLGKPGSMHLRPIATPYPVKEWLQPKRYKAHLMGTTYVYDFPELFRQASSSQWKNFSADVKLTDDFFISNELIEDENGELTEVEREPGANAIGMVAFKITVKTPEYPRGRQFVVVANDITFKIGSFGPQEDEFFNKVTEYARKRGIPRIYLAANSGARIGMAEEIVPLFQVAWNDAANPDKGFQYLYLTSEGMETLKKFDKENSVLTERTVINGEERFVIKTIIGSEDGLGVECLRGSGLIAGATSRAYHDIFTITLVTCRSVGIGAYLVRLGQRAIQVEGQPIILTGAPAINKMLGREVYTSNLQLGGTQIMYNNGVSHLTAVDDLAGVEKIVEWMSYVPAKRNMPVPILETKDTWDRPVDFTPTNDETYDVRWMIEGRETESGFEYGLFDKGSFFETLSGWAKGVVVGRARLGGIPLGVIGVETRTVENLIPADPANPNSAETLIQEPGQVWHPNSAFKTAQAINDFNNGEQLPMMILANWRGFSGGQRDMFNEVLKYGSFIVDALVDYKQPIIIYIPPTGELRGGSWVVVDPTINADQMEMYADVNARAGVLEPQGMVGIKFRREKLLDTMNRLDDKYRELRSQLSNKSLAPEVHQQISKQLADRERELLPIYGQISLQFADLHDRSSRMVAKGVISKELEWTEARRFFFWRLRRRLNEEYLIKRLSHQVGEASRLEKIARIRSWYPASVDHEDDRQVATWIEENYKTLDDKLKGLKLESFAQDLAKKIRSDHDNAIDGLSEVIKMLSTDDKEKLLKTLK
Chain of Human ACC2 (O00763 whole entry): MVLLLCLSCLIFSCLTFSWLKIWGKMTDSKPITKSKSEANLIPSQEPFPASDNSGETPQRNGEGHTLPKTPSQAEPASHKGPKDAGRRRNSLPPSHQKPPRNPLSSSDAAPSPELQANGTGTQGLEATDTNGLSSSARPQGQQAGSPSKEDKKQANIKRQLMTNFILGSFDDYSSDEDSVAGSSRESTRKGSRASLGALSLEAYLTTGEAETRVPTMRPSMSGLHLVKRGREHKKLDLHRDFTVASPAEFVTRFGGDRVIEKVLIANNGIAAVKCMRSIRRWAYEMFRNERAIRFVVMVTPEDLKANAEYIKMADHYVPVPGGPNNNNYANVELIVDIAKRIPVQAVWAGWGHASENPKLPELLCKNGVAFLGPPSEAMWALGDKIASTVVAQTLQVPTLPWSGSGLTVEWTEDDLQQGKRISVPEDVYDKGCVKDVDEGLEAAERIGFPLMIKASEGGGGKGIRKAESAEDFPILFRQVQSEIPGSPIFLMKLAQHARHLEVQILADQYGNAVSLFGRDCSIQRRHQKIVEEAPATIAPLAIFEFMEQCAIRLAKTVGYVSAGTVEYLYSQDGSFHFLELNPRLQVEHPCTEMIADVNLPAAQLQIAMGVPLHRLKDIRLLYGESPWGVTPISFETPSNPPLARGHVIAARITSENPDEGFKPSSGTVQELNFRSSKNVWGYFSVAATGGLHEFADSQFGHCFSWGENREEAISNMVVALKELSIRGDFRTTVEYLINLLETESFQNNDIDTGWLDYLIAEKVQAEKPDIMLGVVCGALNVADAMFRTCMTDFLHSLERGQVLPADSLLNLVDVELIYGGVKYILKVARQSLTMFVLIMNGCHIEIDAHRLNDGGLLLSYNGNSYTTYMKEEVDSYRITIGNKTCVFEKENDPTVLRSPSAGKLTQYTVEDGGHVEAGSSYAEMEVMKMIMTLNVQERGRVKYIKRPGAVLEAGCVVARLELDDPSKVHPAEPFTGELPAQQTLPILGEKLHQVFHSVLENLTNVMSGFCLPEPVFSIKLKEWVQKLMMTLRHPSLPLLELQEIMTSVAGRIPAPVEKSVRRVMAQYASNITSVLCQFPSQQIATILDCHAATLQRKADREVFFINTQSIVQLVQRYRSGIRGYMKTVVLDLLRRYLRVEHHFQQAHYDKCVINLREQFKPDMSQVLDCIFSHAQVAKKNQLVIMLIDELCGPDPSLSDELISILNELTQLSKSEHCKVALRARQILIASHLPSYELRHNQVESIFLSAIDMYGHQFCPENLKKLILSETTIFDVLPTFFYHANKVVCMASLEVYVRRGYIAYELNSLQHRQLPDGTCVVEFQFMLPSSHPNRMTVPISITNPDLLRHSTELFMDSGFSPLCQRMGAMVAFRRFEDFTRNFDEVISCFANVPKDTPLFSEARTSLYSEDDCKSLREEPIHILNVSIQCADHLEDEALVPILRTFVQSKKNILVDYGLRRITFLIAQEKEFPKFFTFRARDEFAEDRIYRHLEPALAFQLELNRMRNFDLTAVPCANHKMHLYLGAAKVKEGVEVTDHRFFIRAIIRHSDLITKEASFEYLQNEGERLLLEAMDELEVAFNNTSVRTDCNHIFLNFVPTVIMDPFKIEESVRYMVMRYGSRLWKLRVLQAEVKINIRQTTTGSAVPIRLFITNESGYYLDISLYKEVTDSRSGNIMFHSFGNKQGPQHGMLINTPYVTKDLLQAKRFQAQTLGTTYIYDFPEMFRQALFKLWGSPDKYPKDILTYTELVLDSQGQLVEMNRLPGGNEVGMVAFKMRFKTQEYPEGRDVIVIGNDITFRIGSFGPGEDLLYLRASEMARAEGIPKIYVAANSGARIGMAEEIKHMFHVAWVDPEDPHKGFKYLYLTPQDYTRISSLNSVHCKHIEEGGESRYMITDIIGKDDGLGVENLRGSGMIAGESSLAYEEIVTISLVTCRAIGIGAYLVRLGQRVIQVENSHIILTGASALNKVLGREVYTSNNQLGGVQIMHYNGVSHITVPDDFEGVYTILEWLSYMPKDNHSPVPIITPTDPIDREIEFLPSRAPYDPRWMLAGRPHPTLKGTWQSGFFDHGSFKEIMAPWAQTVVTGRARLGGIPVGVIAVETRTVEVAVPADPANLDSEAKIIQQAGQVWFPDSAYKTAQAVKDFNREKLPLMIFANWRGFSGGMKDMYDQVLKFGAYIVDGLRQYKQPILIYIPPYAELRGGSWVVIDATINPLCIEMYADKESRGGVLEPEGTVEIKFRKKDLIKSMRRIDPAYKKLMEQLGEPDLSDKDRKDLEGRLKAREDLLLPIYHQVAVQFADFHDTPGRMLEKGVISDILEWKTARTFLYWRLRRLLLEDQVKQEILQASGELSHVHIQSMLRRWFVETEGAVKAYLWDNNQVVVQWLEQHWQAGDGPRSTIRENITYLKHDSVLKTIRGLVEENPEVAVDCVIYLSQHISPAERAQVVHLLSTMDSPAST

Structure (SMILES)	MIC (C. krusei ATCC 6258)	IC50 (Fungal ACC2)	IC50 (Human ACC2)	MIC [1]	MIC (C. albicans ATCC 90028)
COc1ccc(F)cc1[C@H](Cn1c(=O)n([C@@]2(C)CCCN(C)C2=O)c(=O)c2c(C)c(-n3nccn3)sc21)OCCO [Compound I-131, 3-((S)-1,3-dimethyl-2-oxopiperidin-3-yl)-1-((R)-2-(5-fluoro-2-methoxyphenyl)-2-(2-hydroxyethoxy)ethyl)-5-methyl-6-(2H-1,2,3-triazol-2-yl)thieno[2,3-d]pyrimidine-2,4(1H,3H)-dione]	2.1 to 4 µg/mL (≈ 3.58 to 6.82 µM)	0.7 to 2 nM	10 to 100 nM	2.1 to 4 µg/mL (≈ 3.58 to 6.82 µM)	2.1 to 4 µg/mL (≈ 3.58 to 6.82 µM)
COCCO[C@@H](Cn1c(=O)n([C@]2(C)CCC(=O)NC2)c(=O)c2c(C)c(-n3nccn3)sc21)c1cc(F)ccc1OC [Compound I-132, 1-((R)-2-(5-fluoro-2-methoxyphenyl)-2-(2-methoxy-ethoxy)ethyl)-5-methyl-3-((R)-3-methyl-6-oxopiperidin-3-yl)-6-(2H-1,2,3-triazol-2-yl)thieno[2,3-d]pyrimidine-2,4(1H,3H)-dione]	2.1 to 4 µg/mL (≈ 3.58 to 6.82 µM)	0.7 to 2 nM	10 to 100 nM	2.1 to 4 µg/mL (≈ 3.58 to 6.82 µM)	2.1 to 4 µg/mL (≈ 3.58 to 6.82 µM)
COCCO[C@@H](Cn1c(=O)n([C@@]2(C)CCC(=O)NC2)c(=O)c2c(C)c(-n3nccn3)sc21)c1cc(F)ccc1OC [Compound I-134, 1-((R)-2-(5-fluoro-2-methoxyphenyl)-2-(2-methoxy-ethoxy)ethyl)-5-methyl-3-((S)-3-methyl-6-oxopiperidin-3-yl)-6-(2H-1,2,3-triazol-2-yl)thieno[2,3-d]pyrimidine-2,4(1H,3H)-dione]	2.1 to 4 µg/mL (≈ 3.58 to 6.82 µM)	2 to 10 nM	100 to 1000 nM	2.1 to 4 µg/mL (≈ 3.58 to 6.82 µM)	2.1 to 4 µg/mL (≈ 3.58 to 6.82 µM)
COCCO[C@@H](Cn1c(=O)n([C@]2(C)CCC(=O)N(C)C2)c(=O)c2c(C)c(-n3nccn3)sc21)c1cc(F)ccc1OC [Compound I-136, 3-((R)-1,3-dimethyl-6-oxopiperidin-3-yl)-1-((R)-2-(5-fluoro-2-methoxyphenyl)-2-(2-methoxyethoxy)ethyl)-5-methyl-6-(2H-1,2,3-triazol-2-yl)thieno[2,3-d]pyrimidine-2,4(1H,3H)-dione]	2.1 to 4 µg/mL (≈ 3.5 to 6.66 µM)	0.7 to 2 nM	10 to 100 nM	2.1 to 4 µg/mL (≈ 3.5 to 6.66 µM)	2.1 to 4 µg/mL (≈ 3.5 to 6.66 µM)
COCCO[C@@H](Cn1c(=O)n([C@@]2(C)CCC(=O)N(C)C2)c(=O)c2c(C)c(-n3nccn3)sc21)c1cc(F)ccc1OC [Compound I-137, 3-((S)-1,3-dimethyl-6-oxopiperidin-3-yl)-1-((R)-2-(5-fluoro-2-methoxyphenyl)-2-(2-methoxyethoxy)ethyl)-5-methyl-6-(2H-1,2,3-triazol-2-yl)thieno[2,3-d]pyrimidine-2,4(1H,3H)-dione]	2.1 to 4 µg/mL (≈ 3.5 to 6.66 µM)	2 to 10 nM	10 to 100 nM	2.1 to 4 µg/mL (≈ 3.5 to 6.66 µM)	2.1 to 4 µg/mL (≈ 3.5 to 6.66 µM)
COc1ccc(F)cc1[C@H](Cn1c(=O)n([C@]2(C)CCC(=O)N(C)C2)c(=O)c2c(C)c(-n3nccn3)sc21)OCCO [Compound I-142]	2.1 to 4 µg/mL (≈ 3.58 to 6.82 µM)	0.7 to 2 nM	2 to 10 nM	2.1 to 4 µg/mL (≈ 3.58 to 6.82 µM)	2.1 to 4 µg/mL (≈ 3.58 to 6.82 µM)
COc1ccc(F)cc1[C@H](Cn1c(=O)n([C@@]2(C)CCC(=O)N(C)C2)c(=O)c2c(C)c(-n3nccn3)sc21)OCCO [Compound I-143, 3-((S)-1,3-dimethyl-6-oxopiperidin-3-yl)-1-((R)-2-(5-fluoro-2-methoxyphenyl)-2-(2-hydroxyethoxy)ethyl)-5-methyl-6-(2H-1,2,3-triazol-2-yl)thieno[2,3-d]pyrimidine-2,4(1H,3H)-dione]	2.1 to 4 µg/mL (≈ 3.58 to 6.82 µM)	0.7 to 2 nM	2 to 10 nM	2.1 to 4 µg/mL (≈ 3.58 to 6.82 µM)	2.1 to 4 µg/mL (≈ 3.58 to 6.82 µM)
COc1ccc(F)cc1[C@H](Cn1c(=O)n([C@H]2CCN(C)C2=O)c(=O)c2c(C)c(-n3nccn3)sc21)O[C@H]1CC[C@@H](O)CC1 [Compound I-152, 1-((R)-2-(5-fluoro-2-methoxyphenyl)-2-(((1 s, 4S)-4-hydroxycyclohexyl)oxy)ethyl)-5-methyl-3-((S)-1-methyl-2-oxopyrrolidin-3-yl)-6-(2H-1,2,3-triazol-2-yl)thieno[2,3-d]pyrimidine-2,4(1H,3H)-dione]	0.25 to 1 µg/mL (≈ 0.408 to 1.63 µM)	2 to 10 nM	2 to 10 nM	0.25 to 1 µg/mL (≈ 0.408 to 1.63 µM)	0.25 to 1 µg/mL (≈ 0.408 to 1.63 µM)
COc1ccc(F)cc1[C@H](Cn1c(=O)n([C@@H]2CCN(C)C2=O)c(=O)c2c(C)c(-n3nccn3)sc21)O[C@H]1CC[C@@H](O)CC1 [Compound I-153, 1-((R)-2-(5-fluoro-2-methoxyphenyl)-2-(((1 s, 4S)-4-hydroxycyclohexyl)oxy)ethyl)-5-methyl-3-((R)-1-methyl-2-oxopyrrolidin-3-yl)-6-(2H-1,2,3-triazol-2-yl)thieno[2,3-d]pyrimidine-2,4(1H,3H)-dione]	0.25 to 1 µg/mL (≈ 0.408 to 1.63 µM)	0.7 to 2 nM	2 to 10 nM	0.25 to 1 µg/mL (≈ 0.408 to 1.63 µM)	0.075 to 0.24 µg/mL (≈ 0.122 to 0.392 µM)

— patent US20190330224A1, “ACC INHIBITORS AND USES THEREOF” (Gilead Apollo, LLC, priority 2015, published 2019)
